# US9487462B2, “Inhibitors of matrix metalloproteinases” (PharmaHungary 2000 Kft., priority 2010, dated 2016)
# Counter-ions that a name gives are not always drawn.
# How the values were obtained:
# [1] = Cytotoxicity, alamarBlue viability, MRC-5; type: cell-based; conditions: human, MRC-5 fibroblast cells, 48 hours incubation, read-out: MRC-5 LC50
# Protocol: (§1) Beside the inhibitory effect on MMPs we tested the cytotoxicity of the selected compounds. These measurements were done in parallel on two cell lines. One of them was the healthy human fibroblast cell line MRC-5 while the other was the human colon tumor cell line HCT116. The viability of the cells was monitored using alamarBlue. This dye is reduced by the cells resulting in an increased fluorescent signal which is proportional to the number of living cells. Cells were incubated with the dilutions of the tested compounds for 48 hours then alamarBlue was added to them for 4 hours. After that the fluorescence changes were detected using excitation at 540 nm and emission wavelength of 590 nm by a Wallac 1420 Microplate Reader. IC50 values were determined for the compounds using six concentrations and duplicate points for each concentration.
# MMP9 = MMP9 (Homo sapiens, UniProt P14780); assay: MMP activity assay (fluorogenic substrate), MMP9 catalytic domain; type: biochemical; conditions: Table 2
# Protocol: (§2) MMP activity assays were conducted as follows: MMP2, MMP9, MMP13 catalytic domain was expressed in E. coli in form of inclusion bodies followed by refolding and purification.
# (§3) The Protocol of the Activity Assay:
# (§4) Stock solution of substrate (Mca-Lys-Pro-Leu-Gly-Leu-Dpa-Ala-Arg-NH2) was prepared in DMSO at a concentration of 6 mM. Assays were performed in an assay buffer (50 mM Tris pH 7.5, 300 mM NaCl, 10 μM ZnSO4, 5 mM CaCl2, 0.005% Brij-35). The final DMSO concentration in all assays was 1.0%. […] The assays were carried out at 37° C. The fluorescence changes, resulting from the substrate cleavage, were detected using excitation at 340 nm and emission wavelength of 405 nm using a Wallac 1420 Microplate Reader. The reaction mixtures were preincubated with the inhibitors for 30 minutes. The reactions were started by the addition of MMP substrate, and the fluorescence intensity changes were measured after 60 minutes. The obtained fluorescence values were normalized and % inhibition values calculated. Dose response curves were determined from 6 concentration points using three fold dilution steps, each concentration point was determined in duplicate. IC50 values were calculated from the dose response curves.
# [2] = Cytotoxicity, alamarBlue viability, HCT116; type: cell-based; conditions: human, HCT116 colon tumor cells, 48 hours incubation, read-out: HCT116 LC50
# Protocol: as §1
# MMP1 = MMP1 (Homo sapiens (Human), UniProt P03956); assay: MMP activity assay (fluorogenic substrate), MMP1; type: biochemical; conditions: Table 2; read-out: MM1 IC50
# MMP13 = MMP13 (Homo sapiens (Human), UniProt P45452); assay: MMP activity assay (fluorogenic substrate), MMP13 catalytic domain; type: biochemical; conditions: Table 2; read-out: MMP13 IC50
# Protocol: as §2, §3
# as §4, with “The fluorescence changes, resulting from the substrate cleavage, were detected using excitation at 340 nm and emission wavelength of 405 nm using a Wallac 1420 Microplate Reader.” left out
# MMP2 = MMP2 (Homo sapiens, UniProt P08253); assay: MMP activity assay (fluorogenic substrate), MMP2 catalytic domain; type: biochemical; conditions: Table 2; read-out: MMP2 IC50
# Protocol: as §2, §3, §4
# [3] = test system: neonatal rat cardiac myocytes; assay: Cytoprotective effect in cardiac myocytes subjected to hypoxia and reoxygenation; type: cell-based
# Protocol: Neonatal rat hearts were digested and isolated cardiomyocytes were plated onto 24-well plastic plates at […]. The cells were maintained at 37° C. in a humidified atmosphere of 5% CO2 and 95% air in a CO2 incubator until confluence was reached. Cultures at day 3 were used for treatments. Cells were kept under normoxic or simulated ischemic conditions, i.e. the growth medium was changed to a normoxic or hypoxic solution and the cells were incubated under 95% air and 5% CO2 or 95% N2 and 5% CO2 at 37° C. for 4 h, respectively as described in detail (Gorbe A, Giricz Z, Szunyog A, Csont T, Burley D S, Baxter G F, Ferdinandy P. Role of cGMP-PKG signaling in the protection of neonatal rat cardiac myocytes subjected to simulated ischemia/reoxygenation. Basic Res Cardiol. 105:643-650, 2010). The positive control ilomastate (0.5 microM) and MMP-inhibitors at different effective concentrations (EC 5, EC 10, EC 20, and EC50 as determined in previous test examples) were applied during normoxia or simulated ischemia and also during reoxygenation. The vehicle was DMSO. Cell viability was determined after Calcein A M fluorescent staining as described (Karliner J S, Honbo N, Summers K, Gray M O, Goetzl E J. The lysophospholipids sphingosine-1-phosphate and lysophosphatidic acid enhance survival during hypoxia in neonatal rat cardiac myocytes. J Mol Cell Cardiol, 33:1713-7, 2001). Total cell count was determined after digitonin treatment to permeabilize the cells by using propidium iodine fluorescent staining (Roy S S, Hajnoczky G. Calcium, mitochondria and apoptosis studied by fluorescence measurements. Methods. 46:213-223, 2008).
# Sequence of MMP1 (P03956 100-469, species assumed): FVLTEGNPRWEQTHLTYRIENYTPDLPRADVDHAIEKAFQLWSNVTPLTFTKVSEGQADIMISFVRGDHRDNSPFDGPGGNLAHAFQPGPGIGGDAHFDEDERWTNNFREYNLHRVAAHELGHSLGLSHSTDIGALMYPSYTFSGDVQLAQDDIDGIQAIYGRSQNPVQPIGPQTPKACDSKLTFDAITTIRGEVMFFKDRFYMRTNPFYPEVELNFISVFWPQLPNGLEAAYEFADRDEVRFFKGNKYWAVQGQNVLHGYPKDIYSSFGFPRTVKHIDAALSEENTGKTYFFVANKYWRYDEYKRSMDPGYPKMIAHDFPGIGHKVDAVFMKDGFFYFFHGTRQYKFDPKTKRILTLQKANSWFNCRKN
IC50 (MMP9),IC50 (MMP1),IC50 (MMP13),IC50 (MMP2),SMILES,CC50 at 48 h [1],CC50 at 48 h [2],other results
230 µM,200 µM,19 µM,195 µM,"CCOC(=O)c1csc(CN(Cc2ccc(OCc3cccnc3)cc2)Cc2cccnc2)n1 [Compound 17, Ethyl 2-[({[4-(pyridin-3-ylmethoxy)phenyl]methyl}(pyridin-3-ylmethyl)amino)methyl]-1,3-thiazole-4-carboxylate]",15 µM,47 µM,
80 µM,,54 µM,62 µM,"O=C(c1cnc(CCc2ccccc2)[nH]1)N1CCCC1 [Compound 38, (2-Phenethyl-3H-imidazol-4-yl)-pyrrolidin-1-yl-methanone]",,,
250 µM,,165 µM,137 µM,"O=C(O)c1cnc(-c2ccccc2)[nH]1 [Compound 40, 2-Phenyl-3H-imidazole-4-carboxylic acid]",,,
> 500 µM,,300 µM,> 500 µM,"O=C(O)c1cnc(CCc2ccccc2)[nH]1 [Compound 36, 2-Phenethyl-3H-imidazole-4-carboxylic acid]",,,
163 µM,185 µM,3.7 µM,105 µM,"CCOC(=O)c1csc(CN(Cc2ccc(F)cc2)Cc2ccc(OCc3cccnc3)cc2)n1 [Compound 2, Ethyl 2-({[(4-fluorophenyl)methyl]({[4-(pyridin-3-ylmethoxy)phenyl]methyl})amino}methyl)-1,3-thiazole-4-carboxylate]",0.8 µM,0.5 µM,
230 µM,> 500 µM,13 µM,> 500 µM,"CCOC(=O)c1csc(CN(Cc2ccc(F)cc2)Cc2ccc(OCc3ccncc3)cc2)n1 [Compound 18, Ethyl 2-({[(4-fluorophenyl)methyl]({[4-(pyridin-4-ylmethoxy)phenyl]methyl})amino}methyl)-1,3-thiazole-4-carboxylate]",2.9 µM,0.04 µM,
13 µM,11 µM,3.2 µM,10 µM,"O=C(O)c1csc(CN(Cc2ccccc2)Cc2ccccc2)n1 [Compound 7, 2-[(Dibenzylamino)methyl]-1,3-thiazole-4-carboxylic acid]",117 µM,73 µM,
,,,,"CCOC(=O)c1csc(CN(Cc2ccc(F)cc2)Cc2ccc(OCc3ccccc3)cc2)n1 [Compound 11, Ethyl 2-[({[4-(benzyloxy)phenyl]methyl}[(4-fluorophenyl)methyl]amino)methyl]-1,3-thiazole-4-carboxylate]",12 µM,5.8 µM,
,,,,"O=C(O)c1csc(CN(Cc2ccc(OCc3cccnc3)cc2)Cc2cccc(F)c2)n1 [Compound 8, 2-[({[4-(Pyridin-3-ylmethoxy)phenyl]methyl}[(3-fluorophenyl)methyl]amino)methyl]-1,3-thiazole-4-carboxylic acid]",,,"Cytoprotective effect, % cell survival as compared to vehicle DMSO ([3]; normoxia, EC5 concentration 0.7 microM): 99 ± 4%; Cytoprotective effect, % cell survival as compared to vehicle DMSO ([3]; normoxia, EC10 concentration 2.0 microM): 103 ± 4%; Cytoprotective effect, % cell survival as compared to vehicle DMSO ([3]; normoxia, EC20 concentration 6.0 microM): 119 ± 5 %; Cytoprotective effect, % cell survival as compared to vehicle DMSO ([3]; normoxia, EC50 concentration 18.0 microM): 127 ± 4 %; Cytoprotective effect, % cell survival as compared to vehicle DMSO ([3]; simulated ischemia, EC5 concentration 0.7 microM): 117 ± 12%; Cytoprotective effect, % cell survival as compared to vehicle DMSO ([3]; simulated ischemia, EC10 concentration 2.0 microM): 120 ± 8%; Cytoprotective effect, % cell survival as compared to vehicle DMSO ([3]; simulated ischemia, EC20 concentration 6.0 microM): 144 ± 25%; Cytoprotective effect, % cell survival as compared to vehicle DMSO ([3]; simulated ischemia, EC50 concentration 18.0 microM): 107 ± 8%"
,,,,"O=C(O)c1csc(CN(Cc2ccc(OCc3ccccc3)cc2)CC(c2ccccc2)c2ccccc2)n1 [Compound 6, 2-[({[4-(Benzyloxy)phenyl]methyl}(2,2-diphenylethyl)amino)methyl]-1,3-thiazole-4-carboxylic acid]",18 µM,3.5 µM,
8.8 µM,47 µM,1.24 µM,8 µM,"O=C(O)c1csc(CN(Cc2ccc(F)cc2)Cc2ccc(OCc3ccncc3)cc2)n1 [Compound 9, 2-({[(4-Fluorophenyl)methyl]({[4-(pyridin-4-ylmethoxy)phenyl]methyl})amino}methyl)-1,3-thiazole-4-carboxylic acid]",12 µM,4.7 µM,
> 500 µM,,500 µM,> 500 µM,"FC(F)(F)c1cnc(CCc2ccccc2)[nH]1 [Compound 35, 2-Phenethyl-5-trifluoromethyl-1H-imidazole]",,,
,,,,"O=C(O)c1c[nH]c(CNCc2ccc(OCc3cccnc3)cc2)n1 [Compound 31 HCl, 2-[({[4-(Pyridin-3-ylmethoxy)phenyl]methyl}amino)methyl]-1H-imidazole-4-carboxylic acid]",,,"Cytoprotective effect, % cell survival as compared to vehicle DMSO ([3]; normoxia, EC5 concentration 0.25 microM): 108 ± 4%; Cytoprotective effect, % cell survival as compared to vehicle DMSO ([3]; normoxia, EC10 concentration 1.0 microM): 103 ± 3%; Cytoprotective effect, % cell survival as compared to vehicle DMSO ([3]; normoxia, EC20 concentration 4.0 microM): 106 ± 4%; Cytoprotective effect, % cell survival as compared to vehicle DMSO ([3]; normoxia, EC50 concentration 16.0 microM): 103 ± 3%; Cytoprotective effect, % cell survival as compared to vehicle DMSO ([3]; simulated ischemia, EC5 concentration 0.25 microM): 116 ± 8 %; Cytoprotective effect, % cell survival as compared to vehicle DMSO ([3]; simulated ischemia, EC10 concentration 1.0 microM): 107 ± 3%; Cytoprotective effect, % cell survival as compared to vehicle DMSO ([3]; simulated ischemia, EC20 concentration 4.0 microM): 126 ± 2 %; Cytoprotective effect, % cell survival as compared to vehicle DMSO ([3]; simulated ischemia, EC50 concentration 16.0 microM): 127 ± 3 %"
145 µM,,> 500 µM,66 µM,"COC(=O)c1cnc(CCc2ccccc2)[nH]1 [Compound 37, 2-Phenethyl-3H-imidazole-4-carboxylic acid methyl ester]",,,
200 µM,90 µM,31 µM,> 500 µM,"CCOC(=O)c1csc(CN(Cc2ccc(F)cc2)Cc2ccc(-c3ccccc3)cc2)n1 [Compound 32, 2-{[Biphenyl-4-ylmethyl-(4-fluoro-benzyl)-amino]-methyl}-thiazole-4-carboxylic acid ethylester]",13 µM,0.7 µM,
> 500 µM,115 µM,1.5 µM,54 µM,"O=C(O)c1csc(CN(Cc2ccncc2)Cc2ccc(OCc3ccccc3)cc2)n1 [Compound 13, 2[({[4-(Benzyloxy)phenyl]methyl}(pyridin-4-ylmethyl)amino)methyl]-1,3-thiazole-4-carboxylic acid]",11 µM,20 µM,
> 500 µM,,340 µM,> 500 µM,"FC(F)(F)c1cnc(-c2ccccc2)[nH]1 [Compound 39, 2-Phenyl-5-trifluoromethyl-1H-imidazole]",,,
